Data taken from article PMC6270184, “Synthesis and Structure-Activity Relationships of Amino Acid Conjugates of Cholanic Acid as Antagonists of the EphA2 Receptor” (Molecules, 2013).
Where two headings read alike, the source gives them in different places.

Columns and labels:
EphA2 receptor [1] = target: T1, EphA2 receptor (Mus musculus, UniProt Q03145); assay: ELISA displacement of ephrin-A1 binding from immobilized EphA2 receptor; settings: for ability to disrupt the EphA2-ephrin-A1 interaction (in words): ELISA binding assay
Experimental: The pIC50 values of tested compounds are reported in Table 1, together with the corresponding standard deviations of the mean (SEM).
ELISA assays were performed as previously described. Briefly, compounds were stocked as 5 mM solutions in dimethyl sulfoxide (DMSO) and tested in displacing studies, starting from a concentration of 50 µM. […] The reaction was stopped with 3N HCl 100 µL/well and the absorbance was measured using an ELISA plate reader (Sunrise, TECAN, Männedorf, Switzerland) at 450 nm. IC50 values were determined using one-site competition non-linear regression analysis with Prism software (GraphPad Software Inc., San Diego, CA, USA).

FXR = settings: cited from earlier work
TGR5 receptor = settings: cited from earlier work
EphA2 receptor [2] = target: T1, EphA2 receptor; settings: cited from earlier work
[3] = inhibition of biotinylated ephrin-A1-Fc binding to EphA2-Fc, means ± SEM from at least three independent experiments, read-out: pIC50±SEM (converted)
[4] = ref data from an unpublished study

T1 sequence (Q03145 with tags, fused parts or gaps limits assumed): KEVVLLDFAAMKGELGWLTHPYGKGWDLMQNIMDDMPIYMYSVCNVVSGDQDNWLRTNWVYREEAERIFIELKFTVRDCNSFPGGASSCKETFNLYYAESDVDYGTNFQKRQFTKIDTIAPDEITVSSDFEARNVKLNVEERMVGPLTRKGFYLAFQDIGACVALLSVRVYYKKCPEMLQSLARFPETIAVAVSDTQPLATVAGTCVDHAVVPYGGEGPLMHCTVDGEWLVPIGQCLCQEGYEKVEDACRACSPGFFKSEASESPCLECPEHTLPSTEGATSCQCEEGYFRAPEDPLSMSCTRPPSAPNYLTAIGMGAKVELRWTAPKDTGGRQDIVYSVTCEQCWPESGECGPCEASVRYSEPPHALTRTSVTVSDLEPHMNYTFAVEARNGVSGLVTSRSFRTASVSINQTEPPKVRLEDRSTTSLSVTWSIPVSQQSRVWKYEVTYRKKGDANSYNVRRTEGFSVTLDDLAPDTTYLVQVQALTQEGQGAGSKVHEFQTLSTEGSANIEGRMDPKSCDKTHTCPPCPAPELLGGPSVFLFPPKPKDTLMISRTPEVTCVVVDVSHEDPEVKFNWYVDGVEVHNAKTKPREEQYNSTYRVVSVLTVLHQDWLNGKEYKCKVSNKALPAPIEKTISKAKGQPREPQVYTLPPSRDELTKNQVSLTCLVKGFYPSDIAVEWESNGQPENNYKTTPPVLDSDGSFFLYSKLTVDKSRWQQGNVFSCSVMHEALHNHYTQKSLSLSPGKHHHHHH

Row | melting point | SMILES | IC50 (EphA2 receptor [1]; [3]) | other results
1 |  | COC(=O)CNC(=O)CC[C@@H](C)[C@H]1CC[C@H]2[C@@H]3CC[C@@H]4CCCC[C@]4(C)[C@H]3CC[C@]12C [Compound 3, Methyl N-(5β-cholan-24-oyl)glycinate] | > 316 µM | ability to disrupt the EphA2-ephrin-A1 interaction (in words) (EphA2 receptor [1]): inactive
2 |  | C[C@H](CCC(=O)N[C@@H](Cc1c[nH]c2ccccc12)C(=O)O)[C@H]1CC[C@H]2[C@@H]3CC[C@@H]4C[C@H](O)CC[C@]4(C)[C@H]3CC[C@]12C [PCM126/UniPR126] |  | interaction with FXR (in words) (FXR; [4]): does not interact; activity on TGR5 receptor (in words) (TGR5 receptor; [4]): micromolar range
3 | 98 to 101 °C | C[C@H](CCC(=O)N[C@@H](Cc1c[nH]c2ccccc12)C(=O)O)[C@H]1CC[C@H]2[C@@H]3CC[C@@H]4CCCC[C@]4(C)[C@H]3CC[C@]12C [Compound 8, N-(5β-cholan-24-oyl)-L-tryptophan] | 28.2 µM | 
4 |  | C[C@H](CCC(=O)O)[C@H]1CC[C@H]2[C@@H]3CC[C@@H]4C[C@H](O)CC[C@]4(C)[C@H]3CC[C@]12C [LCA, lithocholic acid] |  | agonism of FXR (in words) (FXR): rather potent agonist; agonism of TGR5 (in words) (TGR5 receptor): rather potent agonist
5 | 192 to 195 °C | C[C@H](CCC(=O)NCC(=O)O)[C@H]1CC[C@H]2[C@@H]3CC[C@@H]4CCCC[C@]4(C)[C@H]3CC[C@]12C [Compound 2, N-(5β-cholan-24-oyl)glycine] |  | 
6 | 152 to 155 °C | C[C@H](CCC(=O)NCCC(=O)O)[C@H]1CC[C@H]2[C@@H]3CC[C@@H]4CCCC[C@]4(C)[C@H]3CC[C@]12C [Compound 4, N-(5β-Cholan-24-oyl)-β-alanine] |  | 
7 | 141 to 145 °C | C[C@H](CCC(=O)N[C@H](Cc1c[nH]c2ccccc12)C(=O)O)[C@H]1CC[C@H]2[C@@H]3CC[C@@H]4CCCC[C@]4(C)[C@H]3CC[C@]12C [Compound 9, N-(5β-cholan-24-oyl)-D-tryptophan] | 63.1 µM | 
8 |  | C[C@H](CCC(=O)NCCS(=O)(=O)O)[C@H]1CC[C@H]2[C@@H]3CC[C@@H]4CCCC[C@]4(C)[C@H]3CC[C@]12C [Compound 5, 2-[N-(5β-Cholan-24-oyl)amino]ethanesulfonic Acid] | > 316 µM | ability to disrupt the EphA2-ephrin-A1 interaction (in words) (EphA2 receptor [1]): loss of inhibitory activity
9 |  | C[C@H](CCC(=O)O)[C@H]1CC[C@H]2[C@@H]3CCC4CCCC[C@]4(C)[C@H]3CC[C@]12C (some centres unmarked) [Compound 1, cholanic acid] |  | IC50 (EphA2 receptor [1]): 12.3 µM; pIC50, inhibition of the EphA2-ephrin-A1 interaction (EphA2 receptor [2]): 4.91

Row | SMILES | melting point | IC50 (EphA2 receptor [1]; [3]) | other results
10 | C[C@H](CCC(=O)N[C@@H](Cc1ccccc1)C(=O)O)[C@H]1CC[C@H]2[C@@H]3CC[C@@H]4CCCC[C@]4(C)[C@H]3CC[C@]12C [Compound 6, N-(5β-Cholan-24-oyl)-L-phenylalanine] | 189 to 192 °C | 21.4 µM | 
11 | C[C@H](CCC(=O)N[C@H](Cc1ccccc1)C(=O)O)[C@H]1CC[C@H]2[C@@H]3CC[C@@H]4CCCC[C@]4(C)[C@H]3CC[C@]12C [Compound 7, N-(5β-cholan-24-oyl)-D-phenylalanine] | 195 to 198 °C | 26.3 µM | 
